Measured values published in patent US11207421B2, “Nanostructures comprising cobalt porphyrin-phospholipid conjugates and polyhistidine-tags” (The Research Foundation for The State University of New York, priority 2015, dated 2021).
Where a SMILES comes first, the peptide text is derived from it. Where no end group is shown, it is not given here. The star is where a group is joined. 5FAM = O=C1OC2(c3ccc(O)cc3Oc3cc(O)ccc32)c2ccc(C(=O)*)cc21; Palmitoyl = CCCCCCCCCCCCCCCC(=O)*

Columns and labels:
U87 cells [1] = experiment: Uptake of CoPoP liposomes bound to his-tagged cell penetrating peptides; format: cell-based; details: 1 hour incubation; [2:5:30:63] [PoP:CoP:CHOL:DMPC]
Text: In this example, CoPoP liposomes were targeted to cells via his-tagged cell penetrating peptides. The following his-tagged cell penetrating peptides were obtained: […] (SEQ ID NO:13) (TAT peptide); […] (SEQ ID NO:14) (R8 peptide); […] (SEQ ID NO:15) (PEN peptide).

CoPoP liposomes = experiment: Effect of His-tag length on peptide binding to CoPoP liposomes; details: FAM-labeled peptides with varying His-tag length
Protocol: 1 μg of fluorescent reporter protein was incubated with 20 μg of liposomes in 200 μL PBS in a 96 well plate. Fluorescence in the FRET channel (ex: 430 nm, em: 525 nm) was measured periodically with a fluorescence microplate reader (Tecan Infinite II). Data were normalized to the FRET signal in the protein without addition of liposomes. EMSA experiments were performed with 2.5 μg protein incubated with 50 μg liposomes followed by electrophoresis in a 0.75% agarose gel with 50 V applied for 90 minutes and imaging with an IVIS Lumina II system with the indicated excitation and emission filters. For serum stability test, […] in 40u l PBS. After […], 40u l FBS was added and incubated for another 8 h (hours). For imidazole displacement experiments, 1 μg of reporter protein was bound to 20 μg liposomes in PBS. Imidazole was then titrated and binding was assessed with fluorescence. For serum stability, 1 μg of reporter protein was bound to 20 μg liposomes in 100 μL PBS and then an equal volume of fetal bovine serum (VWR #82013-602) was added and binding was monitored with fluorescence. Peptide binding was assessed with RGD-His FAM fluorophore quenching following incubation of 500 ng peptide with 20 μg liposomes.
The effect of His-tag length on peptide binding to CoPoP liposome was examined. A series of N-terminus FAM-labeled peptides was synthesized with varying lengths of His-tag attached to the C-terminus.

[2] = system: murine RAW 264.7 macrophage cells; experiment: DY-490-OspA uptake by macrophage cells; format: cell-based; details: 2 hr incubation
Protocol: FIG. 24. Assessing epitope availability and stability of antigen-functionalized nanoliposomes. (A) Stability of nanoliposome-antigen particles in 20% (v/v) human serum based on fluorescence quenching assay. (B) Immunoprecipitation of OspA-bound liposomes by OspA-specific monoclonal antibody LA-2. (C) DY-490-OspA uptake by murine RAW 264.7 macrophage cells following 2 hr incubation with indicated samples. Cytochalasin B was supplemented to medium 1 hr prior to incubation. Error bars represent standard deviations for n=3 experiments.
Practical utility of liposomes as antigen delivery vesicles is attributed from its enhanced uptake by antigen presenting cells. […] The macrophage selective uptake of PoP/PHAD liposomes in the mixed form further implicates that physical association of antigen to liposomes may be necessary for liposomal adjuvanticity. Co-delivery of surface-exposed antigen and immunostimulant to immune cells is an important facet of the CoPoP/PHAD liposome. Cellular uptake mechanism via phagocytosis is supported by the diminished uptake for both antigen and liposome in the presence of cytochalasin B.

his-tagged OspA = biological target: T1, his-tagged OspA (Borreliella burgdorferi, UniProt P0CL66); experiment: OspA binding to CoPoP/PHAD liposomes (native PAGE, microBCA); parameters: species or system Borrelia burgdorferi; details: microBCA assay of supernatant after high speed centrifugation
T1 construct: made in house; host or cells: E. coli
T1 sequence (P0CL66 17-273): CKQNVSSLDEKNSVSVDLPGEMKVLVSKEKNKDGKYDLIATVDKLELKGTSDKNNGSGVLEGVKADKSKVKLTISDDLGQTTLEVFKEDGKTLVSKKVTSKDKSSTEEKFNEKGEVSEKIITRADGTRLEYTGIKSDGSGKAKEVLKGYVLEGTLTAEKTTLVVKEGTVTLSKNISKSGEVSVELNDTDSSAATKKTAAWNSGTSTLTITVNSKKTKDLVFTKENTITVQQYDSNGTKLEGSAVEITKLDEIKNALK
Protocol: FIG. 23. […] (D) Hydrodynamic diameter and polydispersity index of liposomes measured using dynamic light scattering. […] Acquisitions were made 3 hr after incubation of liposomes with protein. Error bars represent standard deviations for n=3 measurements.
Spontaneous formation of the proteoliposomes occurs via insertion of the histidine tag into the hydrophobic bilayer and subsequent coordination of the imidazole moiety to the metal center. Binding conditions for were evaluated using native electrophoresis, which allows physical separation of liposome-bound and free proteins due to the limiting pore size of the acrylamide gel. Observed optimum binding mass ratio of 4:1 of PHAD:OspA (FIG. 23A) is consistent with previous studies using the malaria antigen, Pfs25. […] It can be deduced that the initial phase of binding occurred at a fast rate based from the relative band intensities for time points, 0 and 15 min. At the particleization conditions, specific binding is estimated to be about 80% based from microBCA assay of the supernatant obtained from high speed centrifugation (FIG. 23C).

[3] = format: physicochemical; details: not told
Protocol: PoP-liposomes were formulated at a 1 mg scale. After dissolving lipids in chloroform in a test tube, the solvent was evaporated and the film was further dried under vacuum overnight. Lipids were rehydrated with 1 mL of phosphate buffered saline (PBS), sonicated, subjected to 10 freeze-thaw cycles and then extruded through 100 nm polycarbonate membranes (VWR #28157-790) with a handheld extruder (Avanti #610000). For protein and peptide binding analysis, liposomes were formed with 10 mol % PoP along with 85 mol % DOPC (Avanti #850375P), and 5 mol % PEG-lipid (Avanti #880120P). […] Liposomes incorporating free Co-porphyrin included 10 molar % Co-pyropheophorbide with 85 mol % DOPC and 5 mol % PEG-lipid. Co-NTA-liposome was prepared using liposomes containing 10 mol % dioleoyl-gycero-NTA (Avanti #790528P). Liposomes were incubated with 20 mg/mL cobalt (II) chloride for 2 hours and then dialized in PBS. Sulforhodamine B loading liposomes contained 10 mol % PoP, 35 mol % cholesterol (Avanti #700000P), 55 mol % DOPC and PEG-lipid as indicated. […] For bilayer integrity and quantitative cell binding studies, 50 mM dye was used, whereas microscopy studies used 10 mM dye.
Given the binding efficacy of the His-tagged peptide to liposomes, bilayer integrity was assessed to determine whether peptide binding induces membrane destabilization. […]

U87 glioblastoma cells = experiment: Targeted uptake of sulforhodamine B-loaded liposomes; format: cell-based; details: excess free RGD peptide
Protocol: U-87 and MCF-7 cell lines were obtained from ATCC and cultured according to vendor protocol. 2×10^4 cells were seeded overnight in 96-well-plate wells. 500 ng RGD-His peptide was bound with 20 μg of sulforhodamine B loaded liposomes and liposomes were incubated with cells for 2 h. Media was removed, cells were washed with PBS 3 times and then cells and liposomes were lysed with a 1% Triton X-100 solution. Liposomal uptake was assessed by measuring the fluorescence of sulforhodamine B.
For confocal imaging, 10^4 cells were seeded overnight in a Nunc chamber slide (Nunc #155411) in DMEM with 10% fetal bovine serum (FBS). 20 μg of liposomes were added to the serum containing media and incubated for 2 h. Media was removed and the cells were washed with PBS 3 times. Fresh media was added and cells were imaged with microscopy using a Zeiss LSM 710 confocal fluorescence microscope. Gold imaging was carried out in the same way but 633 nm light was used for both excitation and emission for back scatter imaging. […]
Next, RGD-decorated liposomes were assessed whether they could bind to their molecular targets with the established cell-line pair of U87 glioblastoma cells (RGD-binding) and MCF7 breast cancer cells (RGD non-binding). […] Liposomal uptake was assessed by examining the fluorescence in the cells following washing and lysis (to remove any effects of cargo self-quenching). […]

U87 cells [4] = experiment: Uptake of coated gold nanospheres (confocal reflectance/backscatter microscopy); format: cell-based; details: free RGD
Protocol: For gold coating, 60 nm citrate-stabilized gold nanospheres (Ted Pella #15709-20) were used to hydrate a 1 mg lipid film composed of 45 mol % distearoyl phosphocholine (Avanti #850365P), 45 mol % distearoyl phosphoglycerol (Avanti #840465X) and 10 mol % PoP. Following brief vortexing and sonication, the samples were repeatedly centrifuged at 1500 relative centrifugal force (rcf) for 15 min. The supernatant was discarded and the pellet was resuspended and re-centrifuged 2 more times. PoP gold was resuspended in water for further analysis.
For confocal imaging, 10^4 cells were seeded overnight in a Nunc chamber slide (Nunc #155411) in DMEM with 10% fetal bovine serum (FBS). 20 μg of liposomes were added to the serum containing media and incubated for 2 h. Media was removed and the cells were washed with PBS 3 times. Fresh media was added and cells were imaged with microscopy using a Zeiss LSM 710 confocal fluorescence microscope. Gold imaging was carried out in the same way but 633 nm light was used for both excitation and emission for back scatter imaging. After peptide binding, gold was centrifuged to remove any unbound RGD peptide.
Liposomes represent only a subset of all the types of nanomaterials used in biomedical applications. CoPoP was assessed as a generalized surface coating with selective adhesion for His-tags. […]

## HHHHHHHRRRRRRRR (SEQ ID NO:14) (cell penetrating peptide) [R8 peptide]
U87 cells [1]
  binding and uptake of peptide-bound CoPoP liposomes: could bind and get uptaken

## HHHHHHHRQIKIWFQNRRMKWKK (SEQ ID NO:15) (cell penetrating peptide) [PEN peptide]
U87 cells [1]
  binding and uptake of peptide-bound CoPoP liposomes: could bind and get uptaken

## 5-FAM-KKGGGGHH (SEQ ID NO: 6) (5FAM-KKGGGGHH) [2-His]
CoPoP liposomes
  binding t1/2: ~10 h

## HHHHHHHGRKKRRQRRRPPQ (SEQ ID NO:13) (cell penetrating peptide) [TAT peptide]
U87 cells [1]
  binding and uptake of peptide-bound CoPoP liposomes: could bind and get uptaken

## 5-FAM-KKGGGGHHHHHHHHHH (SEQ ID NO: 10) (5FAM-KKGGGGHHHHHHHHHH) [10-His]
CoPoP liposomes
  binding t1/2: 0.333 h

## OspA: his-tagged OspA based on the B31 strain protein sequence without the lipid tail, free non-adjuvanted
[2]
  antigen uptake: Minimal uptake

## lysozyme: a non-histidine tagged protein
his-tagged OspA
  specific binding: failed to bind

## CCCCCCCCCCCCCCCC(=O)NCCCC[C@H](NC(=O)CNC(=O)[C@H](CCCCN)NC(=O)[C@H](C)NC(=O)CNC(=O)[C@H](C)NC(=O)CNC(=O)[C@H](CCCCN)NC(=O)[C@@H]1CCCN1C(=O)[C@H](CO)NC(=O)[C@H](CC(=O)O)NC(=O)CNC(=O)[C@H](CCCNC(=N)N)NC(=O)CNC(=O)c1ccc2c(c1)C(=O)OC21c2ccc(O)cc2Oc2cc(O)ccc21)C(=O)O [RGD-palm] (5FAM-GRGDSPKGAGAKGK(Palmitoyl)-OH; C-terminus assumed)
[3]
  membrane permeabilization by lipopeptide: permeabilization of cargo-loaded liposomes

## 5-FAM-KKGGGG (SEQ ID NO: 5) (5FAM-KKGGGG) [0-His]
CoPoP liposomes
  binding t1/2: no peptide binding was observed

## 5-FAM-KKGGGGHHHHHH (SEQ ID NO: 8) (5FAM-KKGGGGHHHHHH) [6-His]
CoPoP liposomes
  binding t1/2: less than one hour

## GRGDSPK (SEQ ID NO: 2) [Free RGD]
U87 glioblastoma cells
  inhibition of targeted liposome binding: Binding could be inhibited
U87 cells [4]
  inhibition of gold nanoparticle binding: inhibited the binding
